≈ marks a conversion by molar mass, not a printed value. Read-outs that look alike come from different tables or passages of the source.

A word on the half-life: it is how long it takes for the measured level to halve. Broadly, the microsomal CLint is the capacity of the preparation to metabolise the compound, expressed as a volume cleared per time.

One data set has as its system E. coli. The experiment in a line: microbe, parasite or virus in culture. Type of data set: cell-based, Escherichia coli. As to conditions: for MIC: read-out: MIC against E. coli.
For another data set, the system named is K. pneumoniae. The experiment in a line: microbe, parasite or virus in culture. Type of data set: cell-based, Klebsiella pneumoniae.
For the next data set, the system named is Enterobacter spp. Briefly: microbe, parasite or virus in culture. The format is cell-based.
The test system of another data set is P. mirabilis. Briefly: microbe, parasite or virus in culture. The format is cell-based, Proteus mirabilis.
The test system of the next data set is C. koseri. Briefly: microbe, parasite or virus in culture. The format is cell-based, Citrobacter koseri.
The next data set relates to C. freundii. Briefly: microbe, parasite or virus in culture. The format is cell-based, Citrobacter freundii.
In the next data set the test system is S. marcescens. Briefly: microbe, parasite or virus in culture. Type of data set: cell-based, Serratia marcescens.
A further data set relates to M. morganii. The experiment in a line: microbe, parasite or virus in culture. Type of data set: cell-based, Morganella morganii.
The subject of another data set is Yersinia spp. The experiment in a line: microbe, parasite or virus in culture. Type of data set: cell-based, Y. enterocolitica and Y. pseudotuberculosis.
The subject of a further data set is Shigella spp. The experiment in a line: microbe, parasite or virus in culture. The format is cell-based.
The subject of another data set is Salmonella spp. The experiment in a line: microbe, parasite or virus in culture. The format is cell-based, Salmonella enterica.
The subject of another data set is P. aeruginosa. Briefly: microbe, parasite or virus in culture. Type of data set: cell-based, Pseudomonas aeruginosa.
For the next data set, the system named is A. baumannii. The experiment in a line: microbe, parasite or virus in culture. Type of data set: cell-based, Acinetobacter baumannii.
In a further data set the test system is Enterobacteriaceae. Briefly: organism not typed. The format is cell-based.
A further data set has as its system Y. pestis CO92. The format is cell-based, Yersinia pestis.
The test system of data set [1] is Y. pestis. Conditions: mouse, in vivo.
Data set [2] is described as follows: Microsomal stability analysis. Conditions: mouse, liver microsomes, pH 7.4. (Liver microsomes are a subcellular fraction often used to study metabolism.)
The test system of another data set is OF-1 female mice. Briefly: Tolerability study, 5-day intravenous regimen. As to conditions: mouse.
Data set [3] in a line: In vivo pharmacokinetics, single intravenous dose. As to conditions: for half-life: female, OF-1, mouse, plasma, iv.
For data set [4], the system named is Y. pestis. As to conditions: cited from earlier work.

Regarding `CC(O)(C(F)F)C(NC(=O)c1ccc(C#Cc2ccc(CN3CCOCC3)cc2)cc1)C(=O)NO` (stereo not shown) [LPC-069], the “MIC Range” value with E. coli is 0.05 to 0.4 µg/mL; in the data set on K. pneumoniae, 0.2 to 0.8 µg/mL; against Enterobacter spp. it was 0.1 to 1.6 µg/mL; in the data set with P. mirabilis, 0.2 to 0.8 µg/mL; against C. koseri, 0.1 to 1.6 µg/mL; against C. freundii it was 0.2 to 0.4 µg/mL. In addition, the “MIC Range” value with S. marcescens fell in the range of 0.1 to 0.4 µg/mL; in the data set with M. morganii it was 0.2 to 1.6 µg/mL; against Yersinia spp. it was 0.2 to 0.8 µg/mL; against Shigella spp., 0.025 to 0.2 µg/mL; against Salmonella spp, 0.2 to 0.8 µg/mL; in the data set with P. aeruginosa it was 0.2 to 3.2 µg/mL. In addition, the MIC50 with E. coli (Escherichia coli) is 0.1 µg/mL (≈ 0.205 µM); against K. pneumoniae (Klebsiella pneumoniae), 0.4 µg/mL (≈ 0.821 µM); in the data set on Enterobacter spp. (Enterobacter), 0.2 µg/mL (≈ 0.41 µM); against P. mirabilis (Proteus mirabilis) it was 0.2 µg/mL (≈ 0.41 µM); in the data set on C. koseri (Citrobacter koseri), 0.4 µg/mL (≈ 0.821 µM); against C. freundii (Citrobacter freundii) it was 0.2 µg/mL (≈ 0.41 µM). Also, the MIC50 against S. marcescens (Serratia marcescens) was determined as 0.2 µg/mL (≈ 0.41 µM); against M. morganii (Morganella morganii), 0.2 µg/mL (≈ 0.41 µM); against Yersinia spp. (Yersinia), 0.4 µg/mL (≈ 0.821 µM); against Shigella spp. (Shigella), 0.05 µg/mL (≈ 0.103 µM); in the data set on Salmonella spp (Salmonella), 0.4 µg/mL (≈ 0.821 µM); against P. aeruginosa (Pseudomonas aeruginosa), 1.6 µg/mL (≈ 3.28 µM). Moreover, the MIC50 in the data set with A. baumannii (Acinetobacter baumannii) is 0.8 µg/mL (≈ 1.64 µM). Further, the MIC90 turned out to be 0.2 µg/mL (≈ 0.41 µM) in the data set with E. coli (Escherichia coli); 0.8 µg/mL (≈ 1.64 µM) with K. pneumoniae (Klebsiella pneumoniae); 0.4 µg/mL (≈ 0.821 µM) against Enterobacter spp. (Enterobacter); 0.4 µg/mL (≈ 0.821 µM) in the data set with P. mirabilis (Proteus mirabilis); 0.4 µg/mL (≈ 0.821 µM) against C. koseri (Citrobacter koseri); 0.4 µg/mL (≈ 0.821 µM) against C. freundii (Citrobacter freundii). In addition, the MIC90 against S. marcescens (Serratia marcescens) was determined as 0.2 µg/mL (≈ 0.41 µM); with M. morganii (Morganella morganii), 0.8 µg/mL (≈ 1.64 µM); in the data set with Yersinia spp. (Yersinia), 0.8 µg/mL (≈ 1.64 µM); in the data set with Shigella spp. (Shigella), 0.1 µg/mL (≈ 0.205 µM); in the data set on Salmonella spp (Salmonella) it was 0.4 µg/mL (≈ 0.821 µM); against P. aeruginosa, 3.2 µg/mL (≈ 6.56 µM). Moreover, the MIC90 was 3.2 µg/mL (≈ 6.56 µM) against P. aeruginosa (Pseudomonas aeruginosa), 3.2 µg/mL (≈ 6.56 µM) with A. baumannii, 3.2 µg/mL (≈ 6.56 µM) against A. baumannii (Acinetobacter baumannii) and 0.2 to 0.8 µg/mL (≈ 0.41 to 1.64 µM) against Enterobacteriaceae. For the same compound, the MIC with E. coli (Escherichia coli) was 0.1 µg/mL (≈ 0.205 µM). Besides, the “more active than ceftazidime-avibactam” value in the data set on P. aeruginosa is given as 4- to 8 fold. Further, the “type of antibacterial effect (kill curve)” value with Y. pestis CO92 is reported as “bacteriostatic effect”. The “survivors at day 21 postchallenge” value with Y. pestis [1] is 15 out of 15. Also, in the data set with Y. pestis [1] (iv, 40 mg/kg), the “colonization of the lymph nodes, spleen, and blood relative to nontreated controls” value was “significantly (P < 0.02) lower colonization”. The same compound displayed a survival rate in the data set on Y. pestis [1] (iv, 40 mg/kg) not below 80%. In addition, the “bacterial load in skin, lymph nodes, spleen, and blood of survivors” value with Y. pestis [1] (iv, 200 mg/kg) is “sterile”. Further, the posttreatment relapse result with Y. pestis [1] (iv, 200 mg/kg) is on record as “only one of the 15 animals”. The compound further showed a half-life at 1 µM in data set [2] of 44 min. In data set [2], the microsomal CLint at 1 µM is 52 µL/min/mg. Moreover, in the data set on OF-1 female mice (5 days, any of the regimens tested (including 200 mg/kg q8h)), the “diarrhea and detectable toxicity” value is “did not elicit any diarrhea or detectable toxicity”. The compound further displayed a half-life in [3] (40 mg/kg) of 10 min. This compound displayed a distribution volume in data set [3] (mouse, single intravenous 40-mg/kg dose) of 3.8 L/kg.
In the case of `O=C(O)c1cn(C2CC2)c2cc(N3CCNCC3)c(F)cc2c1=O` [ciprofloxacin], the MIC in the data set with Y. pestis [4] was 0.03 µg/mL (≈ 0.0905 µM).
Take `C[C@H]1c2cccc(O)c2C(=O)C2=C(O)[C@]3(O)C(=O)C(C(N)=O)=C(O)[C@@H](N(C)C)[C@@H]3[C@@H](O)[C@@H]21` [doxycycline, reference compound]: in the data set with Y. pestis [1], the “survivors at day 21 postchallenge” value is given as 14 out of 15. In addition, in the data set with Y. pestis [1] (iv, 50 mg/kg), the “bacterial load in skin, lymph nodes, spleen, and blood of survivors” value is given as “sterile”. The MIC in the data set with Y. pestis [4] was 0.5 µg/mL (≈ 1.13 µM).
On to `CC(O)(C(F)F)C(NC(=O)c1ccc(C#CC#Cc2ccc(N)cc2)cc1)C(=O)NO` (stereo not shown) [LPC-058], for which the MIC in the data set on E. coli (Escherichia coli) came out at 0.025 µg/mL (≈ 0.0585 µM). In addition, the “type of antibacterial effect (kill curve)” value in the data set on Y. pestis CO92 is listed as “bacteriostatic effect”. Moreover, in the data set on Y. pestis [1] (iv, 10 mg/kg), the “colonization of the lymph nodes, spleen, and blood relative to nontreated controls” value is “significantly (P < 0.02) lower colonization”; the survival rate was not below 80%. In data set [2], the half-life at 1 µM worked out at 95 min and the intrinsic clearance (microsomal CLint) at 1 µM was 24 µL/min/mg. In the data set with OF-1 female mice (10 mg/kg q8h, 5 days), the “renal function (blood urea nitrogen) and hepatic function” value is reported as “normal”; the tissue damage entry was “no tissue damage was detected”. In addition, in the data set on OF-1 female mice (40 mg/kg q12h, 5 days), the “histology (hematoxylin-eosin, 5-µm sections)” value is “accumulation of polymorphonuclear cells in the lung and large intestine”; the “liver toxicity (blood alanine aminotransferase level)” value is listed as “liver toxicity”. In addition, in the data set with OF-1 female mice (5-day regimen), the “plasma protein levels at the end of the 5-day regimen” value is “Low plasma protein levels”. For the same compound, in the data set with OF-1 female mice (5-day regimen, regardless of regimen (10 mg/kg q8h, 20 mg/kg q12h, 40 mg/kg q12h)), the “appearance of diarrhea after the first injection” value is given as 3 days. In addition, the “AUC greater than AUC of LPC-069” value in data set [3] (LPC-058 single dose 20 mg/kg versus LPC-069 single dose 40 mg/kg, mouse) is “approximately 10 fold”. In addition, the half-life in data set [3] (20 mg/kg) came out at 53 min. This compound also displayed a tissue distribution volume in data set [3] (mouse, single intravenous dose of 20 mg/kg) of 1.1 L/kg.
